Reference: ChEMBL document CHEMBL1134267 (Bioorg Med Chem Lett, 2001)

Columns and labels:
[1] = target: Neuronal acetylcholine receptor subunit alpha-7 (Rattus norvegicus, UniProt Q05941); test: Affinity for alpha-7 neuronal nicotinic acetylcholine receptor subtype determined by inhibition of [3H]-MLA binding to rat brain membranes; type: cell membranes, Membrane
[2] = target: Neuronal acetylcholine receptor alpha4/beta2 (Rattus norvegicus); test: Affinity for Nicotinic acetylcholine receptor alpha4-beta2 tested by analogue-induced inhibition of [3H]NIC binding to rat striatal membranes

Chain of Neuronal acetylcholine receptor subunit alpha-7 (Q05941 whole entry): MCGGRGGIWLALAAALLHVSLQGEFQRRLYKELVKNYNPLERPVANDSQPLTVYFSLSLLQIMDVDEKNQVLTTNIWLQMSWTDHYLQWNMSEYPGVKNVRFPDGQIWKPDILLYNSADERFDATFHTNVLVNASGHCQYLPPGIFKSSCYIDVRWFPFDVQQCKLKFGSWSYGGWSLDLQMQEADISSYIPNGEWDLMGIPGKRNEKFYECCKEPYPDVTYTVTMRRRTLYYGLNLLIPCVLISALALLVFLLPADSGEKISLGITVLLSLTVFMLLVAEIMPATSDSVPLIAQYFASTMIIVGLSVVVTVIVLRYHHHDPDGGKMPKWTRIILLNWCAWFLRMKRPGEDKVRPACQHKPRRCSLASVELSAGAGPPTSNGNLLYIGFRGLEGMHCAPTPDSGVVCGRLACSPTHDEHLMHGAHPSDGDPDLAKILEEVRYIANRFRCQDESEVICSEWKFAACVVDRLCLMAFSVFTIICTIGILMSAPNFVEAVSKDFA

SMILES	Ki [1] [nM]	Ki [2] [nM]
CN1CC[C@@H]2CCc3cc[n+]([BH2-]C#N)cc3[C@@H]21	600	2400
c1cnc2c(c1)[C@H]1NCC[C@H]1CC2	> 100000	10500
c1cc2c(cn1)[C@@H]1NCC[C@@H]1CC2	20200	–
CN1CC[C@H]2CCc3c(ccc[n+]3[BH2-]C#N)[C@H]21	> 100000	–
CN1CC[C@H]2CCc3ncccc3[C@H]21	> 100000	12200
CN1CCC[C@H]1c1ccc[n+]([BH2-]C#N)c1	41	15200
CN1CC[C@@H]2CCc3ccncc3[C@@H]21	590	400
c1cncc([C@@H]2CCCN2)c1 [NORNICOTINE]	1340	–
